Source: patent publication US6352958B1, “Cycloimido-substituted benzofused heterocyclic herbicides” (FMC Corporation, priority 1997, dated 2002)

Legend:
Format in all cases: in vivo
[1] = tested on: Johnsongrass (Sorghum halepense); assay: Preemergence herbicidal activity, johnsongrass; conditions: Rate of Application 0.3 Kg/Ha, examined after 12-17 days
Protocol: (§1) The benzofused heterocyclic compounds of this invention were tested for pre- and postemergence herbicidal activity using a variety of crops and weeds. The test plants included soybean (Glycine max var. Winchester), field corn (Zea mays var. Pioneer 3732), wheat (Triticum aestivum var. Lew), morningglory (Ipomea lacunosa or Ipomea hederacea), velvetleaf (Abutilon theophrasti), green foxtail (Setaria viridis), Johnsongrass (Sorghum halepense), blackgrass (Aloepecurus myosuroides), common chickweed (Stellaria media), and common cocklebur (Xanthium strumarium L.).
(§2) For preemergence testing, two disposable fiber flats (8 cm×15 cm×25 cm) for each rate of application of each candidate herbicide were filled to an approximate depth of 6.5 cm with steam-sterilized sandy loam soil. The soil was leveled and impressed with a template to provide five evenly spaced furrows 13 cm long and 0.5 cm deep in each flat. Seeds of soybean, wheat, corn, green foxtail, and johnsongrass were planted in the furrows of the first flat, and seeds of velvetleaf, morningglory, common chickweed, cocklebur, and blackgrass were planted in the furrows of the second flat. The five-row template was employed to firmly press the seeds into place. A topping soil of equal portions of sand and sandy loam soil was placed uniformly on top of each flat to a depth of approximately 0.5 cm. Flats for postemergence testing were prepared in the same manner except that they were planted 9-14 days prior to the preemergence flats and were placed in a greenhouse and watered, thus allowing the seeds to germinate and the foliage to develop.
(§3) In both pre- and postemergence tests, a stock solution of the candidate herbicide was prepared by dissolving 0.27 g of the compound in 20 mL of water/acetone (50/50) containing 0.5% v/v sorbitan monolaurate. For an application rate of 3000 g/ha of herbicide a 10 mL portion of the stock solution was diluted with water/acetone (50/50) to 45 mL.
(§4) The preemergence flats were initially subjected to a light water spray. The four flats were placed two by two along a conveyor belt (i.e., the two preemergence followed by the two postemergence flats). The conveyor belt fed under a spray nozzle mounted about ten inches above the post-emergent foliage. The preemergent flats were elevated on the belt so that the soil surface was at the same level below the spray nozzle as the foliage canopy of the postemergent plants. The spray of herbicidal solution was commenced and once stabilized, the flats were passed under the spray at a speed to receive a coverage equivalent of 100 L/ha. At this coverage the application rates are those shown in the above table for the individual herbicidal solutions. The preemergence flats were watered immediately thereafter, placed in the greenhouse and watered regularly at the soil surface. The postemergence flats were immediately placed in the green-house and not watered until 24 hours after treatment with the test solution. Thereafter they were regularly watered at ground level. After 12-17 days the plants were examined and the phytotoxicity data were recorded.
(§5) Phytotoxicity data were taken as percent control. Percent control was determined by a method similar to the 0 to 100 rating system disclosed in “Research Methods in Weed Science,” 2nd ed., B. Truelove, Ed.; Southern Weed Science Society; Auburn University, Auburn, Ala., 1977.

[2] = tested on: Johnsongrass (Sorghum halepense); assay: Postemergence herbicidal activity, johnsongrass; conditions: rate of application 0.3 Kg/Ha, rated after 12-17 days
Protocol: as §1, §2, §3, §4, §5

[3] = tested on: green foxtail (Setaria viridis); assay: Preemergence herbicidal activity, green foxtail; conditions: Rate of Application 0.3 Kg/Ha, examined after 12-17 days
Protocol: as §1, §2, §3, §4, §5

[4] = tested on: field corn (Zea mays var. Pioneer 3732); assay: Postemergence herbicidal activity, corn; conditions: rate of application 0.3 Kg/Ha, rated after 12-17 days
Protocol: as §1, §2, §3, §4, §5

[5] = tested on: wheat (Triticum aestivum var. Lew); assay: Preemergence herbicidal activity, wheat; conditions: Rate of Application 0.3 Kg/Ha, examined after 12-17 days
Protocol: as §1, §2, §3, §4, §5

[6] = tested on: velvetleaf (Abutilon theophrasti); assay: Postemergence herbicidal activity, velvetleaf; conditions: rate of application 0.3 Kg/Ha, rated after 12-17 days
Protocol: as §1, §2, §3, §4, §5

[7] = tested on: soybean (Glycine max var. Winchester); assay: Postemergence herbicidal activity, soybean; conditions: rate of application 0.3 Kg/Ha, rated after 12-17 days
Protocol: as §1, §2, §3, §4, §5

[8] = tested on: velvetleaf (Abutilon theophrasti); assay: Preemergence herbicidal activity, velvetleaf; conditions: Rate of Application 0.3 Kg/Ha, examined after 12-17 days
Protocol: as §1, §2, §3, §4, §5

[9] = tested on: field corn (Zea mays var. Pioneer 3732); assay: Preemergence herbicidal activity, corn; conditions: Rate of Application 0.3 Kg/Ha, examined after 12-17 days
Protocol: as §1, §2, §3, §4, §5

[10] = tested on: soybean (Glycine max var. Winchester); assay: Preemergence herbicidal activity, soybean; conditions: Rate of Application 0.3 Kg/Ha, examined after 12-17 days
Protocol: as §1, §2, §3, §4, §5

[11] = tested on: common cocklebur (Xanthium strumarium L.); assay: Postemergence herbicidal activity, cocklebur; conditions: rate of application 0.3 Kg/Ha, rated after 12-17 days
Protocol: as §1, §2, §3, §4, §5

[12] = tested on: morningglory (Ipomea lacunosa or Ipomea hederacea); assay: Preemergence herbicidal activity, morningglory; conditions: Rate of Application 0.3 Kg/Ha, examined after 12-17 days
Protocol: as §1, §2, §3, §4, §5

[13] = tested on: common cocklebur (Xanthium strumarium L.); assay: Preemergence herbicidal activity, cocklebur; conditions: Rate of Application 0.3 Kg/Ha, examined after 12-17 days
Protocol: as §1, §2, §3, §4, §5

[14] = tested on: green foxtail (Setaria viridis); assay: Postemergence herbicidal activity, green foxtail; conditions: rate of application 0.3 Kg/Ha, rated after 12-17 days
Protocol: as §1, §2, §3, §4, §5

[15] = tested on: wheat (Triticum aestivum var. Lew); assay: Postemergence herbicidal activity, wheat; conditions: rate of application 0.3 Kg/Ha, rated after 12-17 days
Protocol: as §1, §2, §3, §4, §5

[16] = tested on: morningglory (Ipomea lacunosa or Ipomea hederacea); assay: Postemergence herbicidal activity, morningglory; conditions: rate of application 0.3 Kg/Ha, rated after 12-17 days
Protocol: as §1, §2, §3, §4, §5

[17] = tested on: common chickweed (Stellaria media); assay: Postemergence herbicidal activity, chickweed; conditions: rate of application 0.3 Kg/Ha, rated after 12-17 days
Protocol: as §1, §2, §3, §4, §5

[18] = tested on: common chickweed (Stellaria media); assay: Preemergence herbicidal activity, chickweed; conditions: Rate of Application 0.3 Kg/Ha, examined after 12-17 days
Protocol: as §1, §2, §3, §4, §5

| SMILES | PREEMERGENCE HERBICIDAL ACTIVITY (% CONTROL) SORHA [1] [%] | Postemergence herbicidal activity (% control) SORHA [2] [%] | PREEMERGENCE HERBICIDAL ACTIVITY (% CONTROL) SETVI [3] [%] | Postemergence herbicidal activity (% control) CRN [4] [%] | PREEMERGENCE HERBICIDAL ACTIVITY (% CONTROL) WHT [5] [%] | Postemergence herbicidal activity (% control) ABUTH [6] [%] | Postemergence herbicidal activity (% control) SOY [7] [%] | PREEMERGENCE HERBICIDAL ACTIVITY (% CONTROL) ABUTH [8] [%] | PREEMERGENCE HERBICIDAL ACTIVITY (% CONTROL) CRN [9] [%] | PREEMERGENCE HERBICIDAL ACTIVITY (% CONTROL) SOY [10] [%] | Postemergence herbicidal activity (% control) XANPE [11] [%] | PREEMERGENCE HERBICIDAL ACTIVITY (% CONTROL) IPOSS [12] [%] | PREEMERGENCE HERBICIDAL ACTIVITY (% CONTROL) XANPE [13] [%] | Postemergence herbicidal activity (% control) SETVI [14] [%] | Postemergence herbicidal activity (% control) WHT [15] [%] | Postemergence herbicidal activity (% control) IPOSS [16] [%] | Postemergence herbicidal activity (% control) STEME [17] [%] | PREEMERGENCE HERBICIDAL ACTIVITY (% CONTROL) STEME [18] [%] |
| --- | --- | --- | --- | --- | --- | --- | --- | --- | --- | --- | --- | --- | --- | --- | --- | --- | --- | --- |
| COC(=O)Cc1nc2c(-n3c(=O)cc(C(F)(F)F)n(C)c3=O)c(F)cc(Br)c2o1 [Compound 49] | 90 | 90 | 100 | 80 | 50 | 100 | 95 | 100 | 80 | 95 | 30 | 100 | 90 | 100 | 70 | 100 | 40 | 20 |
| CCCc1cc2c(Cl)cc(F)c(-n3c(=O)cc(C(F)(F)F)n(C)c3=O)c2o1 [Compound 223] | 100 | 100 | 100 | 90 | 50 | 100 | 95 | 100 | 80 | 100 | 100 | 100 | 90 | 100 | 40 | 100 | 100 | 100 |
| Cn1c(C(F)(F)F)cc(=O)n(-c2ccc(Cl)c3cc(C(C)(C)C)oc23)c1=O [Compound 226] | 80 | 80 | 100 | 80 | 50 | 100 | 70 | 100 | 70 | 70 | 90 | 90 | 60 | 100 | 40 | 95 | 80 | 90 |
| Cn1c(C(F)(F)F)cc(=O)n(-c2c(F)cc(F)c3cc(C(C)(C)C)oc23)c1=O [Compound 228] | 100 | 90 | 100 | 80 | 80 | 100 | 90 | 100 | 95 | 100 | 95 | 100 | 90 | 100 | 50 | 100 | 80 | 100 |
| Cn1c(C(F)(F)F)cc(=O)n(-c2ccc(Cl)c3cc(CBr)oc23)c1=O [Compound 232] | 25 | 10 | 40 | 30 | 30 | 100 | 75 | 90 | 50 | 20 | 40 | 80 | 10 | 30 | 50 | 80 | 20 | 20 |
| Cn1c(C(F)(F)F)cc(=O)n(-c2ccc(Cl)c3cc(C(Br)Br)oc23)c1=O [Compound 233] | 50 | 30 | 60 | 60 | 30 | 100 | 90 | 100 | 70 | 40 | 30 | 95 | 20 | 30 | 30 | 100 | 30 | 20 |
| CC(O)c1cc2c(Cl)cc(F)c(-n3c(=O)cc(C(F)(F)F)n(C)c3=O)c2o1 (stereo not drawn) [Compound 240] | 100 | 100 | 100 | 100 | 95 | 100 | 95 | 100 | 95 | 100 | 100 | 100 | 100 | 100 | 95 | 100 | 100 | 100 |
